Molecules are shown by their SMILES. Activity calls are given as the source filed them. The rule behind the calls is not given here.

A word on the EC50: it is the concentration at which the effect is half-maximal.

Data set [1] can be described thus: Modulation of SGK1 mRNA expression in HCCD cells at 20 uM after 24 hrs by RT-PCR method relative to control. It counts as functional, Homo sapiens.
Data set [2] has as its target T1, Peroxisome proliferator-activated receptor alpha (Homo sapiens) (UniProt Q07869).
T1 sequence (whole entry): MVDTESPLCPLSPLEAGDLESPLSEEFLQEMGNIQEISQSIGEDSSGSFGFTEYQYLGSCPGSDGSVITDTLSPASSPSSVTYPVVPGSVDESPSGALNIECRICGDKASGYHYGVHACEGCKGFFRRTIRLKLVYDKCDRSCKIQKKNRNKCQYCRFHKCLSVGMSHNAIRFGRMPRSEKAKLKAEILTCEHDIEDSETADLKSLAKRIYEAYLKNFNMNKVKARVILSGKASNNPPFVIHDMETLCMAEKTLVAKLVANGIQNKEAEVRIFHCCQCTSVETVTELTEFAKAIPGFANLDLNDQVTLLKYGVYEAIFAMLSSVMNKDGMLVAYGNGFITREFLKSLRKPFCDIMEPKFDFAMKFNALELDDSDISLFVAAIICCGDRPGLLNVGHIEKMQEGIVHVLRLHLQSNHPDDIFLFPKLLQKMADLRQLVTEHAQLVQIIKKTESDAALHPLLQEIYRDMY
Put plainly: Transactivation of human Gal4-fused PPARalpha LBD expressed in African green monkey COS7 cells after 24 hrs by luciferase reporter gene assay relative to WY14643. It counts as cell-based. In general terms: A reporter such as luciferase makes a cellular process visible.

The test system of data set [3] is Mus musculus. Description: Toxicity in ob/ob mouse assessed as change in body weight at 3 mg/kg administered via oral gavage daily for 4 days measured on day 5 relative to control. In kind it is organism-based. Particulars: in vivo, 96 h.
The target in data set [4] is T2, NAD-dependent protein deacetylase sirtuin-1 (Homo sapiens) (UniProt Q96EB6).
T2 sequence (whole entry): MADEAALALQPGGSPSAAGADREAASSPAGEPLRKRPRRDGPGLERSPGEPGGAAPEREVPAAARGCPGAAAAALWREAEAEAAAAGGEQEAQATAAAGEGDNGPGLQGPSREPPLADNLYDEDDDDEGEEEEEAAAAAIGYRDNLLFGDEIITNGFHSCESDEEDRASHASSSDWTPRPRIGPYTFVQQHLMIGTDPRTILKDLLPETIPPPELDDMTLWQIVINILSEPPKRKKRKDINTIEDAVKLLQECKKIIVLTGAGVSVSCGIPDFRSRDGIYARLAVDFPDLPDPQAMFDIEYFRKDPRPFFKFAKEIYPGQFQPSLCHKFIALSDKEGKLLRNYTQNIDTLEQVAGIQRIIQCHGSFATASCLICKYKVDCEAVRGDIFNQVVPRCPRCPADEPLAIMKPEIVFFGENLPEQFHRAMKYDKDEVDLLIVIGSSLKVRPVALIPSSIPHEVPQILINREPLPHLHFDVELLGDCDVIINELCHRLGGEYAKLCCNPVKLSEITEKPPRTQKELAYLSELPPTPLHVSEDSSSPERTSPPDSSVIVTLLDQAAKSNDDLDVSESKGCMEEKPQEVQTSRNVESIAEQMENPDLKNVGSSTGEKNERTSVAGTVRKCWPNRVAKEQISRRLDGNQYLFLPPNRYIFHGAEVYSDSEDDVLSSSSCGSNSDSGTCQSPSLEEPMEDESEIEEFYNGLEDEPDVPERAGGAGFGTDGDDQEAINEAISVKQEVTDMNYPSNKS
Description: Activation of recombinant human SIRT1 at 10 uM using C-terminal AMC labeled Arg-His-Lys-Lys (Ac) as substrate after 30 mins by FLUOR DE LYS fluorescent assay relative to control.

Data set [5] deals with T3, Peroxisome proliferator-activated receptor delta (Homo sapiens) (UniProt Q03181).
T3 sequence (whole entry): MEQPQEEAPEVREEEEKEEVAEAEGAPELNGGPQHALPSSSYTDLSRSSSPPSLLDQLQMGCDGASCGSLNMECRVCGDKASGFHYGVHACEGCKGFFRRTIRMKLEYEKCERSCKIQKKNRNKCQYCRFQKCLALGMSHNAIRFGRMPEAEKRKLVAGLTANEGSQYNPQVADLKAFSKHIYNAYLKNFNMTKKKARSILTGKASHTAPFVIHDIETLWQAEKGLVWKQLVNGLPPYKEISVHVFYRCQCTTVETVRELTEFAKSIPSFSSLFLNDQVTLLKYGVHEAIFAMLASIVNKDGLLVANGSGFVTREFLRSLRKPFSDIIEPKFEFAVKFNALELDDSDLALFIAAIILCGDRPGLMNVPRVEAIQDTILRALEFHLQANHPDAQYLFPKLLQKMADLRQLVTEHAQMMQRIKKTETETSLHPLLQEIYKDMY
Description: Transactivation of human PPARdelta at 10 uM.

Data set [6] concerns the target T4, Peroxisome proliferator-activated receptor gamma (Homo sapiens, UniProt P37231).
T4 sequence (P37231 whole entry): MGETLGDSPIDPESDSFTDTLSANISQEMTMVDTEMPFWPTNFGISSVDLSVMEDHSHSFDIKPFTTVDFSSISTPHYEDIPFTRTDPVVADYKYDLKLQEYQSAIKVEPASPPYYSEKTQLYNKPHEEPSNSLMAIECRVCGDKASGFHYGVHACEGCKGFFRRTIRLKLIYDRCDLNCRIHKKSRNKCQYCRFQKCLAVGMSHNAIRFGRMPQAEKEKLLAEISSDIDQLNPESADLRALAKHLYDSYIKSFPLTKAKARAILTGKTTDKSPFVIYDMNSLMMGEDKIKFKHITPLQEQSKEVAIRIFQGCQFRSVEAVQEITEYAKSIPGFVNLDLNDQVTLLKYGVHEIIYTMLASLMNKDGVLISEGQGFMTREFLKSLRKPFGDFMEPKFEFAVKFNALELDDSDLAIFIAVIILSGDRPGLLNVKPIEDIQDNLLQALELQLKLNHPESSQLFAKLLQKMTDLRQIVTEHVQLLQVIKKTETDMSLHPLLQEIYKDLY
Description: Transactivation of human Gal4-fused PPARgamma LBD expressed in African green monkey COS7 cells after 24 hrs by luciferase reporter gene assay. It counts as cell-based. The note with it: read-out: EC50.

The target of data set [7] is T5, Peroxisome proliferator-activated receptor alpha (Homo sapiens, UniProt Q07869).
T5 sequence (Q07869 whole entry): T1 sequence (whole entry)
Description: Transactivation of human Gal4-fused PPARalpha LBD expressed in African green monkey COS7 cells after 24 hrs by luciferase reporter gene assay. In kind it is cell-based.

The subject of data set [8] is Mus musculus. Put plainly: Anti-diabetic activity in ob/ob mouse assessed as change in serum triglyceride levels at 8.4 uM/kg administered via oral gavage daily for 4 days measured on day 5 relative to control. In kind it is functional.
Data set [9] deals with Mus musculus. Description: Anti-diabetic activity in ob/ob mouse assessed as change in serum insulin levels at 8.4 uM/kg administered via oral gavage daily for 4 days measured on day 5 relative to control. It counts as functional.
For data set [10], the system named is Mus musculus. Description: Anti-diabetic activity in ob/ob mouse assessed as change in serum glucose levels at 8.4 uM/kg administered via oral gavage daily for 4 days measured on day 5 relative to control. In kind it is functional.
In data set [11] the test system is Mus musculus. Put plainly: Toxicity in ob/ob mouse assessed as change in body weight at 8.4 uM/kg administered via oral gavage daily for 4 days measured on day 5 relative to control. The note with it: in vivo, 96 h, 8.4 µmol/kg. In kind it is organism-based.

In the case of `COc1ccc(OC(=O)N(CC(=O)O)Cc2ccc(OCCc3nc(-c4ccccc4)oc3C)cc2)cc1` [MURAGLITAZAR], the Activity in data set [1] was determined as 178%; with Mus musculus [3], 206%. Besides, the Emax in data set [2] turned out to be 84%.
On to `CN(CCOc1ccc(CC2SC(=O)NC2=O)cc1)c1ccccn1` (centres undefined) [ROSIGLITAZONE], for which the Activity in data set [1] was found to be 119%; in [4], 5%; in the data set with Mus musculus [3] it was 100%.
Regarding `CCOC(=O)C(Cc1ccc(OCCn2c(=O)sc3cc(C(=O)/C=C/c4cc(O)cc(O)c4)ccc32)cc1)OCC` (centres undefined), the outcome in [5] was inactive. Further, the EC50 came to 0.02 µM in data set [6] and 10 µM in data set [7]. Also, the Activity was 243% in data set [1]; -28% in the data set on Mus musculus [8]; 0% in data set [4]; -4% in the data set with Mus musculus [9]; -30% in the data set with Mus musculus [10]; 91% in the data set with Mus musculus [11]. Besides, the Emax in data set [2] is 42%.
`CCOC(=O)C(Cc1ccc(OCCn2c(=O)sc3cc(/C=C/c4cc(O)cc(O)c4)ccc32)cc1)OCC` (centres undefined): the result in data set [5] was inactive. For the same compound, the results for the EC50 in data set [6] and in data set [7] were 0.01 µM and 10 µM, respectively. Moreover, the Activity in data set [1] was 134%; in the data set on Mus musculus [8] it was -19%; in data set [4] it was 59%; in the data set on Mus musculus [9], -37%; in the data set on Mus musculus [10] it was -35%; with Mus musculus [11], 49%. The Emax in data set [2] stood at 76%.
Take `CCOC(Cc1ccc(OCCn2c(=O)sc3cc(/C=C/c4cc(OC)cc(OC)c4)ccc32)cc1)C(N)=O` (centres undefined): the result in [5] was inactive. In addition, the EC50 was less than 0.01 µM in data set [6] and 1 µM in [7]. The Activity in [1] was -43%; in the data set on Mus musculus [8], -32%; in data set [4] it was -12%; in the data set on Mus musculus [9], -26%; in the data set on Mus musculus [10] it was -27%; in the data set with Mus musculus [11] it was 158%. Moreover, the Emax in [2] turned out to be 35%.
For the compound `CCOC(=O)C(Cc1ccc(OCCn2c(=O)sc3cc(C(=O)/C=C/c4cc(OC)cc(OC)c4)ccc32)cc1)OCC` (centres undefined), the outcome in data set [5] was inactive. Moreover, the results for the half-maximal effective concentration (EC50) in data set [6] and in data set [7] were 0.03 µM and 10 µM, respectively. Moreover, the Activity in [1] was -14%; in the data set with Mus musculus [8] it was -34%; in data set [4], 2%; in the data set on Mus musculus [9] it was -7%; with Mus musculus [10] it was -25%; in the data set on Mus musculus [11], 112%. The Emax in data set [2] was 0%.
For `Cc1oc(-c2ccccc2)nc1CCOc1ccc(C[C@H](Nc2ccccc2C(=O)c2ccccc2)C(=O)O)cc1` [FARGLITAZAR], the Activity in data set [1] is 969%; in the data set with Mus musculus [3], 162%. This compound also came in with an Emax in data set [2] of 231%.
For `COc1cc(/C=C/c2ccc3c(c2)sc(=O)n3CCOc2ccc(CC(OCC(F)(F)F)C(=O)O)cc2)cc(OC)c1` (centres undefined), in data set [5], the outcome was inactive. Moreover, the EC50 in data set [6] came to 0.02 µM; in data set [7], 0.3 µM. The Activity in [1] is 89%; in the data set with Mus musculus [8], -23%; in [4], -4%; in the data set with Mus musculus [9], -61%; in the data set with Mus musculus [10] it was -36%; in the data set with Mus musculus [11], 81%. In [2], this compound showed an Emax of 170%.

For the origin of these results see ChEMBL document CHEMBL4138119, “Anti-diabetic activity of fused PPARγ-SIRT1 ligands with limited body-weight gain by mimicking calorie restriction and decreasing SGK1 expression” (Eur J Med Chem, 2017).
